Reference: publication PMC9822051, “A Study on the Chemistry and Biological Activity of 26-Sulfur Analogs of Diosgenin: Synthesis of 26-Thiodiosgenin S-Mono- and Dioxides, and Their Alkyl Derivatives” (Molecules, 2022)
Converted amounts (≈) assume the structure as drawn. “And” between values parts separate entries of the source, which are not always exact repeats. Equal values may be shown once. Read-outs that look alike come from different tables or passages of the source.

Experiments:
[1] = test system: Escherichia coli ATCC 35218; test: Antibacterial activity, broth microdilution (MIC/MBC); type: cell-based; conditions: E. coli ATCC 35218; for MIC: 37 °C, 24 h
Method: (§1) The antibacterial activity of tested compounds was assessed by monitoring the cell growth of Staphylococcus aureus 8325-4 and Escherichia coli ATCC 35218 using the broth microdilution method, conducted according to the National Committee for Clinical Laboratory Standards. First, compounds were dissolved in methanol and the solution was added to Mueller Hinton broth (MHB) for bacteria to give a final concentration of 2000 µg/mL. The samples were then serially two-fold diluted in bullion to obtain concentration ranging from 1000 to 0.12 μg/mL in 96-well microtiter plate with the final volumes of 100 μL. Next, 100 μL of bacteria suspension was injected into each well. The final bacteria cell concentration was 1 × 10^6 colony-forming units per ml (CFU/mL). The plates were incubated at 37 °C for 24 h. The MIC value was determined as the lowest concentration of an antibacterial agent that inhibited bacterial growth, as indicated by the absence of turbidity. The MBC value was determined as the lowest concentration of antibacterial agents for which no bacterial growth on the plates was observed.

[2] = test system: Staphylococcus aureus 8325-4; test: as above; type: cell-based; conditions: S. aureus 8325-4; for MIC: 37 °C, 24 h
Method: as §1

[3] = test system: S. aureus 8325-4 membrane proteins (Trp^214 residues); test: Trp fluorescence quenching of bacterial membrane proteins (Stern-Volmer); type: binding, Staphylococcus aureus; conditions: for Stern-Volmer constant KSV: compound 0.5–2.0 µM, PBS pH 7.4, λexc 295 nm, λem 350 nm; for quenching constant kq: kq = KSV/τ0
Excerpt: (§2) Based on fluorescence analysis, the Stern-Volmer plots were drawn (Figure 5) using equation given below (Equation (1)). (1) F0/F=1+KSV[Q] where: F0 and F are the Trp fluorescence without and in the presence of quencher (studied compounds), KSV—Stern-Volmer constant, [Q]—concentration of the quencher.
(§3) In order to check whether studied compounds form complexes with bacterial cells proteins, the quenching constants (kq) have been calculated using equation below (Equation (2)) and are presented in Table 3. (2) kq=KSV/τ0 where: kq—quenching constant, KSV—Stern-Volmer constant, τ0—fluorescence lifetime of fluorophore molecules.
(§4) Bacteria strains: S. aureus and E. coli grown overnight at 37 °C in Mueller Hinton (MH) broth with shaking at 200 rpm. Next, bacteria suspensions were centrifuged (2300× g, 15 min) and resuspended in PBS after removing the supernatant. For experiments, bacteria suspensions (OD600 = 0.1 in C = 10 mM PBS buffer, pH = 7.4) have been used in the presence (concentration range 0.5–2.0 µM) and without the studied compounds. The measurements were performed in quartz cuvette (1 cm × 1 cm). Fluorescence was monitored at the λexc. = 295 nm and λem. = 350 nm from tryptophan (Trp^214) residues in bacterial membrane proteins. The studies were carried out using Perkin-Elmer LS-55B (Perkin-Elmer, Pontyclun, UK) spectrofluorometer.

[4] = test system: E. coli ATCC 35218 membrane proteins (Trp^214 residues); test: as above; type: binding, Escherichia coli; conditions: for Stern-Volmer constant KSV: compound 0.5–2.0 µM, PBS pH 7.4, λexc 295 nm, λem 350 nm; for quenching constant kq: kq = KSV/τ0
Excerpt: as §2, §3, §4

[5] = Cytotoxicity, resazurin, 72 h; type: cell-based, human; conditions: human
Method: The studied compounds were evaluated for cytotoxicity in human cancer cell lines (cervical carcinoma HeLa, chronic myelogenous leukemia K562 and breast adenocarcinoma MCF7) and normal human retina cells RPE-1 (ca. 5.0 × 10^4 cells·mL^−1) after 72 h of treatment using resazurin (Merck/MilliporeSigma, St. Louis, MO, USA) as described earlier for Calcein AM dye.

[6] = test system: lung cancer cell line A549; parameters: method as in PMID 33402081, PMID 23751199; conditions: cited from earlier work
[7] = Escherichia coli, ATCC35218, read-out: MIC
[8] = Escherichia coli, ATCC35218, read-out: MBC
[9] = Staphylococcus aureus, 83254, read-out: MIC
[10] = Staphylococcus aureus, 83254, read-out: MBC
[11] = K562 chronic myelogenous leukemia cells, K562, 72 h
[12] = MCF7 breast adenocarcinoma cells, MCF7, 72 h
[13] = RPE-1 normal retina cells, RPE-1 normal cells

SMILES	MIC [1, 7]	MBC [1, 8]	MIC [2, 9]	MBC [2, 10]	Stern-Volmer constant KSV [3]	quenching constant kq [3]	Stern-Volmer constant KSV [4]	quenching constant kq [4]	IC50 at 72 h ([5]; HeLa cervical carcinoma cells)	IC50 at 72 h [5, 11]	IC50 at 72 h [5, 12]	IC50 at 72 h [5, 13]	melting point	other results
CC1CCC2(OC3CC4C5CC=C6CC(O)CCC6(C)C5CCC4(C)C3C2C)S(=O)(=O)C1C (stereo not drawn) [α-Methylsulfone 11]	125 µg/mL and 262 µM	250 mg/L (≈ 524 µM)	3.9 µg/mL and 8.2 µM	7.8 mg/L (≈ 16.4 µM)	3.442 ± 0.168 10^4 M^−1	6.84 ± 0.34 10^12 M^−1s^−1	2.470 ± 0.101 10^4 M^−1	4.94 ± 0.17 10^12 M^−1s^−1	92.3 µM	> 50 µM	> 50 µM	> 50 µM	225 to 227 °C	
C[C@@H]1CC[C@]2(O[C@H]3C[C@H]4[C@@H]5CC=C6C[C@@H](O[C@@H]7O[C@H](CO)[C@@H](O[C@@H]8O[C@@H](C)[C@H](O)[C@@H](O)[C@H]8O)[C@H](O)[C@H]7O[C@@H]7O[C@@H](C)[C@H](O)[C@@H](O)[C@H]7O)CC[C@]6(C)[C@H]5CC[C@]4(C)[C@H]3[C@@H]2C)SC1 [26-thiodioscine]														IC50 [6]: 3.72 µM
CC1CCC2(CC1)O[C@H]1C[C@H]3[C@@H]4CC[C@H]5C[C@@H](O)CC[C@]5(C)[C@H]4CC[C@]3(C)[C@H]1[C@@H]2C (stereo partly shown) [Carbaanalog 5]	500 µg/mL and 1210 µM	1000 mg/L (≈ 2410 µM)	7.8 µg/mL and 18.9 µM	31.2 mg/L (≈ 75.4 µM)	1.258 ± 0.189 10^4 M^−1	2.52 ± 0.32 10^12 M^−1s^−1	2.021 ± 0.198 10^4 M^−1	4.04 ± 0.45 10^12 M^−1s^−1	38.2 ± 0.8 µM	> 50 µM	> 50 µM	> 50 µM		MIC [1]: 500 µg/mL (≈ 1210 µM); MIC [2]: 7.8 µg/mL (≈ 18.8 µM)
CC1CCC2(OC3CC4C5CC=C6CC(O)CCC6(C)C5CCC4(C)C3C2C)S(=O)(=O)C1 (stereo not shown) [Sulfone 8]	125 µg/mL and 270 µM	250 mg/L (≈ 540 µM)	3.9 µg/mL and 8.4 µM	7.8 mg/L (≈ 16.9 µM)	2.915 ± 0.175 10^4 M^−1	5.82 ± 0.31 10^12 M^−1s^−1	2.962 ± 0.105 10^4 M^−1	5.92 ± 0.16 10^12 M^−1s^−1	> 50 µM	> 50 µM	> 50 µM	> 50 µM	205 to 207 °C	
C[C@@H]1CC[C@@]2(OC1)O[C@H]1C[C@H]3[C@@H]4CC=C5C[C@@H](O[C@@H]6O[C@H](CO)[C@@H](O[C@@H]7O[C@@H](C)[C@H](O)[C@@H](O)[C@H]7O)[C@H](O)[C@H]6O[C@@H]6O[C@@H](C)[C@H](O)[C@@H](O)[C@H]6O)CC[C@]5(C)[C@H]4CC[C@]3(C)[C@H]1[C@@H]2C [dioscine]														IC50 [6]: 4.02 µM
CCC1C(C)CCC2(OC3CC4C5CC=C6CC(O)CCC6(C)C5CCC4(C)C3C2C)S1(=O)=O (stereo not shown) [26-Ethylsulfone 12]									44.1 ± 0.1 µM	> 50 µM	> 50 µM	> 50 µM	210 to 212 °C	
CC1CCC2(OC3CC4C5CC=C6CC(O)CCC6(C)C5CCC4(C)C3C2C)[S+]([O-])C1 (stereo not shown) [Sulfoxide 6]	125 µg/mL and 280 µM	250 mg/L (≈ 560 µM)	3.9 µg/mL and 8.7 µM	7.8 mg/L (≈ 17.5 µM)	4.051 ± 0.170 10^4 M^−1	8.14 ± 0.35 10^12 M^−1s^−1	1.456 ± 0.201 10^4 M^−1	2.92 ± 0.36 10^12 M^−1s^−1	> 50 µM	> 50 µM	> 50 µM	> 50 µM	143 to 146 °C	
CC1CCC2(OC3CC4C5CC=C6CC(O)CCC6(C)C5CCC4(C)C3C2C)[S+]([O-])C1(C)C (stereo not shown) [Dimethylsulfoxide 10]									32.2 ± 1.7 µM	> 50 µM	> 50 µM	> 50 µM		
CC1CCC2(OC3CC4C5CC=C6CC(O)CCC6(C)C5CCC4(C)C3C2C)SC1 (stereo not shown) [26-Thiodiosgenin (3), 26-thiodiosgenin]	62.5 µg/mL and 145 µM	125 mg/L (≈ 290 µM)	1.95 µg/mL and 4.5 µM	3.9 mg/L (≈ 9.06 µM)	8.322 ± 0.142 10^4 M^−1	16.62 ± 0.23 10^12 M^−1s^−1	5.091 ± 0.152 10^4 M^−1	10.02 ± 0.28 10^12 M^−1s^−1	> 50 µM	> 50 µM	> 50 µM	> 50 µM		MBC [1]: 125 mg/L (≈ 290 µM); MIC [1]: 62.5 µg/mL (≈ 145 µM); MBC [2]: 3.9 mg/L (≈ 9.06 µM); MIC [2]: 1.95 µg/mL (≈ 4.53 µM)
C[C@@H]1CC[C@@]2(OC1)O[C@H]1C[C@H]3[C@@H]4CC=C5C[C@@H](O)CC[C@]5(C)[C@H]4CC[C@]3(C)[C@H]1[C@@H]2C [Diosgenin (1), diosgenin]	250 µg/mL and 603 µM	500 mg/L (≈ 1210 µM)	3.9 µg/mL and 9.4 µM	15.6 mg/L (≈ 37.7 µM)	5.441 ± 0.131 10^4 M^−1	10.93 ± 0.27 10^12 M^−1s^−1	3.384 ± 0.165 10^4 M^−1	6.76 ± 0.35 10^12 M^−1s^−1						MBC [1]: 500 mg/L (≈ 1210 µM); MIC [1]: 250 µg/mL (≈ 603 µM); MBC [2]: 15.615 mg/L (≈ 37.7 µM); MIC [2]: 3.9 µg/mL (≈ 9.41 µM); IC50 at 72 h ([5]; HeLa): > 50 µM; IC50 at 72 h ([5]; RPE-1 normal cells): > 50 µM; IC50 at 72 h ([5]; K562, 72 h): > 50 µM; IC50 at 72 h ([5]; MCF7, 72 h): > 50 µM
CC1CCC2(OC3CC4C5CC6OC67CC(O)CCC7(C)C5CCC4(C)C3C2C)S(=O)(=O)C1 (stereo not shown) [Epoxysulfone 9]									> 50 µM	> 50 µM	> 50 µM	> 50 µM		
